The source made the active and inactive calls.
Assays:
Prothrombin = Prothrombin (Homo sapiens, UniProt P00734); experiment: Thrombin 1536 HTS Dose Response Confirmation. [Related pubchem assays: 1046 (Thrombin 1536 HTS; hits were confirmed in this assay)]; type: functional
[1] = M. tuberculosis H37Rv growth inhibitors, H37Rv strain (AID 1626); type: functional
[2] = molecular target: Peroxisome proliferator-activated receptor gamma/Nuclear receptor corepressor 2 (Homo sapiens, UniProt P37231+Q9Y618); type: functional
Sequence of Peroxisome proliferator-activated receptor gamma/Nuclear receptor corepressor 2 (P37231 whole entry): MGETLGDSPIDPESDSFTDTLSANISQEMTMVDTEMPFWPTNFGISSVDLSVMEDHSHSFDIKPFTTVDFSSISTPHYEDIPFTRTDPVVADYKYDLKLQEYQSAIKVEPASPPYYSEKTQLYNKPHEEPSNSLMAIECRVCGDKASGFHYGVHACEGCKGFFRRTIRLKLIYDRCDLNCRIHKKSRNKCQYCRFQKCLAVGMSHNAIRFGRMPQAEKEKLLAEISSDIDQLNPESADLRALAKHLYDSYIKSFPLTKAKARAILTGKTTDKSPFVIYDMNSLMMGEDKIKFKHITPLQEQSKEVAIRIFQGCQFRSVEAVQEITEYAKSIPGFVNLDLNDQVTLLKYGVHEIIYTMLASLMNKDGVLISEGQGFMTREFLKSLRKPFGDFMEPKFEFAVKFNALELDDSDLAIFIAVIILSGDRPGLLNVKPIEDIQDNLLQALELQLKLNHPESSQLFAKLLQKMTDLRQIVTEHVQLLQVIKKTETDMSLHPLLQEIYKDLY
Sequence of Peroxisome proliferator-activated receptor gamma/Nuclear receptor corepressor 2 (Q9Y618 whole entry): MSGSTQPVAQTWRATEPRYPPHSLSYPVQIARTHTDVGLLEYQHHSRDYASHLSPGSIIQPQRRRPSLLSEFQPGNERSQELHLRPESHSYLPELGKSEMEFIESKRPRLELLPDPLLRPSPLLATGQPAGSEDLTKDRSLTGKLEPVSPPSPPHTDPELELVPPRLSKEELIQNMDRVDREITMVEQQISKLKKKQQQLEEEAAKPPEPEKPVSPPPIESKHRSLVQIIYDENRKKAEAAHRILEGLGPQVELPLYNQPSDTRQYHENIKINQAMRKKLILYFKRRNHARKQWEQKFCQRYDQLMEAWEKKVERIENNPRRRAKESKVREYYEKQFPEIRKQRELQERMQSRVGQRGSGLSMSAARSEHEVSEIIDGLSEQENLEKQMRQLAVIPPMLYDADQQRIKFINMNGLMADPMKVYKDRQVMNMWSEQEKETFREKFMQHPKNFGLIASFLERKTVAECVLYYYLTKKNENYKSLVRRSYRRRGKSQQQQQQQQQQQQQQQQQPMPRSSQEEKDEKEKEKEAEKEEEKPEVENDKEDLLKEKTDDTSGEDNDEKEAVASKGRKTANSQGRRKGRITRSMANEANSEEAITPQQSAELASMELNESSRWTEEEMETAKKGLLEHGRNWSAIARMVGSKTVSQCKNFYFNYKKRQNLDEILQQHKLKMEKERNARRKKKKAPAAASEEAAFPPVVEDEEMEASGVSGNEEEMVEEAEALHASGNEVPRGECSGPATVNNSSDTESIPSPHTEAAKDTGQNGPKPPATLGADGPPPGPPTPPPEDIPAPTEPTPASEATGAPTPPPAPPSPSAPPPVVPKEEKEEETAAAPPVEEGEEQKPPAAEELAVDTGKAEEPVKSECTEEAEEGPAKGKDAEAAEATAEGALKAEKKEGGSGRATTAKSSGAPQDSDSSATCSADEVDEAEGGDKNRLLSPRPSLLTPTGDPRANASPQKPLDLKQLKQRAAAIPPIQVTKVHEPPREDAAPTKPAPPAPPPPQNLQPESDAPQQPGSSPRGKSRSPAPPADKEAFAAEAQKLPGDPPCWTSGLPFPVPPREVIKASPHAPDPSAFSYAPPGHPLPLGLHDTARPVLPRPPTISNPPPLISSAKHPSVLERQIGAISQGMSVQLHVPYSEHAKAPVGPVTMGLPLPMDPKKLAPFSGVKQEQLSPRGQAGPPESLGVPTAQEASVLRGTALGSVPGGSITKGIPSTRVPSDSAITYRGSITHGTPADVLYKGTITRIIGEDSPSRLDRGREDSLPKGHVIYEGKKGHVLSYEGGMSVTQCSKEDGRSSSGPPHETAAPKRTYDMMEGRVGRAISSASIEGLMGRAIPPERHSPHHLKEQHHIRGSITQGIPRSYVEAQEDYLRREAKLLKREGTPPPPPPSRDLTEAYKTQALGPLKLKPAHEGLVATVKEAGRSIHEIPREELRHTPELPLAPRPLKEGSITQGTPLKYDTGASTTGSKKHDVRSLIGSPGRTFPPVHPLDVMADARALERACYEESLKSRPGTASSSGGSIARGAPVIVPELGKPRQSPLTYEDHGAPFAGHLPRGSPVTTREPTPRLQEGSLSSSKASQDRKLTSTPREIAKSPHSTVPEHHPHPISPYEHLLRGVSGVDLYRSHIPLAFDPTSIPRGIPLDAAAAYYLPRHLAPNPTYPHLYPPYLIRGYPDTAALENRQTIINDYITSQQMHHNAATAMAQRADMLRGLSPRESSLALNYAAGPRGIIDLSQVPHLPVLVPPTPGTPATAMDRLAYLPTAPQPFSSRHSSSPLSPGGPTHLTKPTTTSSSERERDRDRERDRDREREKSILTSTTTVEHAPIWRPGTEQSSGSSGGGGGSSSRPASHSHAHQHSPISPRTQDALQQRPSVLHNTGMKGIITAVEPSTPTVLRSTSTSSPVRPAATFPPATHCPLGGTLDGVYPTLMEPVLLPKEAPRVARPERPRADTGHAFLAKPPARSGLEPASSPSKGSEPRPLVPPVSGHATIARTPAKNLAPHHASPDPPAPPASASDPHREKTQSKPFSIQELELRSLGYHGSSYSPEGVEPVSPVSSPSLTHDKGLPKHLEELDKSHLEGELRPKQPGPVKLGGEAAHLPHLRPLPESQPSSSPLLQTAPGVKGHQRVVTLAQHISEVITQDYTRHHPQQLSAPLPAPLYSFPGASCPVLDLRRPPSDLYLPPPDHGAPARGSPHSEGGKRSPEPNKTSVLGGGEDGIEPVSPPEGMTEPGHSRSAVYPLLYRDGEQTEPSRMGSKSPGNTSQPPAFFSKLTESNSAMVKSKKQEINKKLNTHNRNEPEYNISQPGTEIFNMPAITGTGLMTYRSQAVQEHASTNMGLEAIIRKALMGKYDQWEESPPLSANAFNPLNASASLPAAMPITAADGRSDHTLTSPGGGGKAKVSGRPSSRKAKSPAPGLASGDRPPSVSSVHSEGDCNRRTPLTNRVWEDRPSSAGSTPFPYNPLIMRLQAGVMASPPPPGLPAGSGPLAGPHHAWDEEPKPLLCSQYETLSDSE

[3] = molecular target: Photoreceptor-specific nuclear receptor (Homo sapiens, UniProt Q9Y5X4); type: functional;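 note: potency for compounds that break the NR2E3 corepressor complex and count as activators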
Sequence of Photoreceptor-specific nuclear receptor (Q9Y5X4 whole entry): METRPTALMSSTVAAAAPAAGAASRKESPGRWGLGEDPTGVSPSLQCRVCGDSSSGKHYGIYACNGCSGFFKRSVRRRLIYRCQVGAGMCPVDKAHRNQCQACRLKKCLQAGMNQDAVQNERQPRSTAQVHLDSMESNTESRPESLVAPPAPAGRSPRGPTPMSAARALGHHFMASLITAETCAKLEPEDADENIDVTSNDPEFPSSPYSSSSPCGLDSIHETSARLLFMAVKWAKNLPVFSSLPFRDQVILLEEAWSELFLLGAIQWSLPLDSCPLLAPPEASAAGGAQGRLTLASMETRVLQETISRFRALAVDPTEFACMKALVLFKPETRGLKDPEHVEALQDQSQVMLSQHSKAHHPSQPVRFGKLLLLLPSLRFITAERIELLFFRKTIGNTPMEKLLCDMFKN

14-3-3 protein gamma = molecular target: T1, 14-3-3 protein gamma (Homo sapiens, UniProt P61981); experiment: modulators of 14-3-3 gamma client binding – dose response (AID 711); type: functional
T1 sequence (P61981 whole entry): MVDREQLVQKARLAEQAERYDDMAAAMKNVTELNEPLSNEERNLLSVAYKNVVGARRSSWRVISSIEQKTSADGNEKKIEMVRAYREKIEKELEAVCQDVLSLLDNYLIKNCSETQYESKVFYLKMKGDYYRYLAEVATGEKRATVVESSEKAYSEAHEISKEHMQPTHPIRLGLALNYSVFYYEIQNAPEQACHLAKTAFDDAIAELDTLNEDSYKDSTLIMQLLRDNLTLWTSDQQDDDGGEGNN

Bcl-2-like protein 10 = molecular target: T2, Bcl-2-like protein 10 (Homo sapiens, UniProt Q9HD36); experiment: Bcl-B/TR3 peptide binding disruption – biochemical, fluorescence polarization, FITC-TR3 peptide, selectivity assay for Bfl-1 inhibitor project, primary screen (AID 748);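 note: fluorescence polarization from a fluorescein-labelled TR3 peptide binding purified Bcl-B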
T2 sequence (Q9HD36 whole entry): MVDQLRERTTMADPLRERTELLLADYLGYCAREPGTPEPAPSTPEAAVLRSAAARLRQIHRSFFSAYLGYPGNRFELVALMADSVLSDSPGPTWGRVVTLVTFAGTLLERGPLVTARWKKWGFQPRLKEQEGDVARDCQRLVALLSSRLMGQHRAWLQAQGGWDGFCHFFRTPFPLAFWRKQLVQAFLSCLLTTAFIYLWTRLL

[4] = A cytotoxicity screen of small molecule inhibitors of the PhoP region in Salmonella typhi identified in the primary screen. [Related pubchem assays: 1850, 1864, 1985 ]; type: functional
[5] = molecular target: Induced myeloid leukemia cell differentiation protein Mcl-1 (Homo sapiens, UniProt Q07820); type: functional
Sequence of Induced myeloid leukemia cell differentiation protein Mcl-1 (Q07820 whole entry): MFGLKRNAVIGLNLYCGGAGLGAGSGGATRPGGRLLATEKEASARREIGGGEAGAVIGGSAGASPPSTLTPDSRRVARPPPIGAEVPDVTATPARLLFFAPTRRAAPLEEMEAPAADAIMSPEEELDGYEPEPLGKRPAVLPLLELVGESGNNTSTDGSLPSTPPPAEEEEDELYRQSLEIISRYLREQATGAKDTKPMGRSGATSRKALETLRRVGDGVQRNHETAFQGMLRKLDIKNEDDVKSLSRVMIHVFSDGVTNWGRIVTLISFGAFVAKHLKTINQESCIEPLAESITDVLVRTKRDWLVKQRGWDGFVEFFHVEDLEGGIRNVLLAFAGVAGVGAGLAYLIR

[6] = molecular target: Peroxisome proliferator-activated receptor gamma/Nuclear receptor coactivator 2 (Homo sapiens, UniProt P37231); experiment: (§1) TR-FRET dose response biochemical High Throughput Screening assay for agonists of the steroid receptor coactivator 2 (SRC-2) recruitment by the peroxisome proliferator-activated receptor gamma (PPAR gamma): non-selective agonists. [Related pubchem assays: 1297, 1032 ]; type: functional
[7] = molecular target: Peroxisome proliferator-activated receptor gamma/Nuclear receptor coactivator 1 (Homo sapiens, UniProt P37231); experiment: as §1, with “1 (SRC-1)” for “2 (SRC-2)”, “assays (depositor defined):AID1300, AID1808, AID504735, AID631]” for “assays: 1297, 1032 ]”; type: protein assay
[8] = molecular target: Peroxisome proliferator-activated receptor gamma/Nuclear receptor coactivator 3 (Homo sapiens, UniProt P37231); experiment: as §1, with “3 (SRC-3)” for “2 (SRC-2)”, “1301 (Confirmation screen.), 1048 (Primary screen.)]” for “1297, 1032 ]”; type: functional
H4 = experiment: Luminescence Cell-Based Dose Response HTS to Identify Activators of 5'UTR Stem-Loop Driven Prion Protein mRNA Translation in H4 Neuroglioblastoma Cells. [Related pubchem assays: 1829 (Project Summary), 1814 (Primary HTS)]; type: functional; conditions: Homo sapiens
[9] = Luminescence Cell-Based Dose Response HTS to Identify Activators of Luciferase Translation or Activity in H4 […] Cells. [Related pubchem assays: 1829 (Project Summary), 1814 (Primary HTS)]; type: functional
[10] = Luminescence Cell-Based Dose Confirmation HTS to Identify Activators of 5'UTR Stem-Loop Driven Alpha-Synuclein mRNA Translation in H4 Neuroglioblastoma Cells. [Related pubchem assays: 1829 (Project Summary), 1814 (Primary HTS)]; type: functional
[11] = molecular target: Eukaryotic translation initiation factor 4H (Homo sapiens, UniProt Q15056); experiment: eIF4H binding inhibition – biochemical, uHTS, fluorescence polarization, translation initiation inhibitor project, primary screen (AID 2012)
[12] = molecular target: Polyadenylate-binding protein 1 (Homo sapiens, UniProt P11940); experiment: blockers of PABP interaction with poly(A) – biochemical, fluorescence polarization, […] (AID 2014)
Sequence of Polyadenylate-binding protein 1 (P11940 whole entry): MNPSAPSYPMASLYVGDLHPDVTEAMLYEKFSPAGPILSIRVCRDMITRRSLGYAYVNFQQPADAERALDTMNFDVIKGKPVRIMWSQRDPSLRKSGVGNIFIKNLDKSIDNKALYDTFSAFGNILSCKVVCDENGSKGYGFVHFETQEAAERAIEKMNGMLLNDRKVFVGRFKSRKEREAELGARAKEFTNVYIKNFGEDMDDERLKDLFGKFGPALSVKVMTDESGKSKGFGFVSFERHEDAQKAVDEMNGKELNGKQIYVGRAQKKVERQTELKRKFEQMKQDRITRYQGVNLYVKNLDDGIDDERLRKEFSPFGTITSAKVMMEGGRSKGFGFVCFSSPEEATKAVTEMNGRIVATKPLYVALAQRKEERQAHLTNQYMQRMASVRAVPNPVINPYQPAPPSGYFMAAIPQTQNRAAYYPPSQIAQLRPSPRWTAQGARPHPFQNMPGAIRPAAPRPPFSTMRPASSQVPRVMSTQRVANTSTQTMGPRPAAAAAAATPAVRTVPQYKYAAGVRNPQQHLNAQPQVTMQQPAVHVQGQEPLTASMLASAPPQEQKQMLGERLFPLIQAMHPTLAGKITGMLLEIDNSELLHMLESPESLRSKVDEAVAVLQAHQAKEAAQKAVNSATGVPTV

Estrogen receptor = molecular target: T3, Estrogen receptor (Homo sapiens, UniProt P03372);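 note: potency for inhibiting coactivator peptide recruitment to the receptor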
T3 sequence (P03372 whole entry): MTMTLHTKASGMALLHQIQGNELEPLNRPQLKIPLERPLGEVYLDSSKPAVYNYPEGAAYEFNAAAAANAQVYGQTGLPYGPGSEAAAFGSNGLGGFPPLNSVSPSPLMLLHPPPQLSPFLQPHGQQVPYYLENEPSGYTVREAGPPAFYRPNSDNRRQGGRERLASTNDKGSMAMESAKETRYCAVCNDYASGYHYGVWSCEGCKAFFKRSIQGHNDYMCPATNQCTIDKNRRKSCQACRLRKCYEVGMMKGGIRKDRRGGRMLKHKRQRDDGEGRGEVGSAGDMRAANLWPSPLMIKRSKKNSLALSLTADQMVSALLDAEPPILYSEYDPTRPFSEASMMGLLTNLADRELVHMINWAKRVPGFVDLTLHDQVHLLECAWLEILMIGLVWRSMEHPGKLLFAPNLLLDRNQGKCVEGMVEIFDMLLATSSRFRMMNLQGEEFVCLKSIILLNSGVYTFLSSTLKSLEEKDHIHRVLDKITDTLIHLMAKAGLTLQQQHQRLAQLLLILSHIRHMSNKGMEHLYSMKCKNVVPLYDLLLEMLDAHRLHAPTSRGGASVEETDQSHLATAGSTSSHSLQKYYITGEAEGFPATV

[13] = microbe, parasite or virus in culture; type: functional; conditions: Mycobacterium tuberculosis
cells = type: functional
[14] = Vero E6 cell cytotoxicity, dose response, cytotoxicity control for non-replicating M. tuberculosis project, secondary assay (AID 492998); type: functional, VeroE6; conditions: Vero C1008
[15] = THP-1 cell cytotoxicity, dose response, cytotoxicity control for non-replicating M. tuberculosis project (AID 489025); type: functional
Beta-galactosidase = Beta-galactosidase (Escherichia coli, UniProt Q8VNN2); experiment: detection-enzyme interference by beta-gal modulators – biochemical, E. coli enzyme, set 3, artefact control for CCR6 antagonist project, dose response (AID 504712); type: functional
[16] = molecular target: Heat shock protein HSP 90-alpha (Homo sapiens, UniProt P07900); type: functional, organism-based
Phosphomannomutase 2 = molecular target: T4, Phosphomannomutase 2 (Homo sapiens, UniProt O15305); experiment: Counter screen SAR assay for PMM2 inhibitors via a fluorescence intensity assay. [Related pubchem assays (depositor defined):AID1545, AID1574]
T4 sequence (O15305 whole entry): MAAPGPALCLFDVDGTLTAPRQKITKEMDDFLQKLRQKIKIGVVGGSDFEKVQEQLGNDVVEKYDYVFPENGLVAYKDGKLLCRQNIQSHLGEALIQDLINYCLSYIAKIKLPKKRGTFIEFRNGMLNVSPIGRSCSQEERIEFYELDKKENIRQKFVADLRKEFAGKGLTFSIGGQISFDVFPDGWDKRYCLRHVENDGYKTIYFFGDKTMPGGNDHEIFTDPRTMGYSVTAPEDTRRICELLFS

[17] = molecular target: T5, Mannose-6-phosphate isomerase (Homo sapiens, UniProt P34949); experiment: MPI enzyme activity inhibition – biochemical, fluorescence intensity, coupled assay, primary screen (AID 1209)
T5 sequence (P34949 whole entry): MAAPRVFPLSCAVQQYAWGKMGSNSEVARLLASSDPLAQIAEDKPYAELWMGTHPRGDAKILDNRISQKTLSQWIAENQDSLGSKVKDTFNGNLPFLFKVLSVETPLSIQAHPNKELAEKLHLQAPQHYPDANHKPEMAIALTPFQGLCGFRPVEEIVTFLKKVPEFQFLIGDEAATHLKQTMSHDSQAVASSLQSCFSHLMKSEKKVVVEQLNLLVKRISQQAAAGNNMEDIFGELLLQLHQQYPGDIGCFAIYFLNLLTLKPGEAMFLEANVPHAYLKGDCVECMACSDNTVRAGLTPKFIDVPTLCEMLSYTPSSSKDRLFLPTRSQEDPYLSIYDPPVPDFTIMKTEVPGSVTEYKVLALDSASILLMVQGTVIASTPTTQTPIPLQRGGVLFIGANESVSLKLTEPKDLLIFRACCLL

SMILES: CC(=O)n1nc(-c2ccc(C)cc2)nc1NCc1ccco1
- IC50 (Prothrombin): 1.82 µM (active)

SMILES: COc1ccc(NC(=O)CCc2nc(-c3ccccc3F)no2)cc1
- IC50 [1]: > 100 µM (active)

SMILES: COc1ccc(C(=O)NNC(=O)C(Cc2ccc(O)cc2)NC(=O)c2ccccc2NC(=O)c2ccc(OC)cc2)cc1 (stereo not drawn)
- IC50 [2]: > 39.8 µM (not active)
- IC50 [3]: > 39.8 µM (not active)

SMILES: COC(=O)Cn1cc(C(=O)c2cccs2)c2ccccc21
- IC50 (Prothrombin): > 50 µM (inconclusive)

SMILES: Cc1ccc(C(=O)NCC(C)(C)O)cc1
- IC50 (14-3-3 protein gamma): > 50 µM (not active)

SMILES: Cc1cc(C)c(NC(=O)CN(c2ccccc2)S(=O)(=O)N(C)C)c(C)c1
- IC50 (Bcl-2-like protein 10): 69.2 µM (inactive)

SMILES: Cc1cc(NS(=O)(=O)c2ccc(Nc3nc(-c4sc(NC(=O)c5ccccc5)nc4C)cs3)cc2)no1
- EC50 [4]: > 50 µM (active)
- IC50 [5]: 2.46 µM (active)

SMILES: CCOc1cc(C2NC(=O)NC(O)(C(F)(F)F)C2C(=O)c2ccc(Cl)cc2)ccc1O (stereo not drawn)
- IC50 (Prothrombin): > 50 µM (not active)

SMILES: CN(C)CCCN1C(=O)C(O)=C(C(=O)c2cc3ccccc3o2)C1c1ccccc1 (stereo not drawn)
- EC50 [6]: 4.26 µM (active)
- EC50 [7]: 6.07 µM (active)
- EC50 [8]: > 79.4 µM (not active)
- IC50 [2]: 5.04 µM (active)
- IC50 [3]: > 39.8 µM (not active)

SMILES: Nc1ccccc1Nc1cc(-c2ccccc2)[nH]n1
- EC50 (H4): 12.1 µM (active)
- EC50 [9]: 19.8 µM (active)
- IC50 [1]: > 100 µM (active)
- EC50 [10]: 14.1 µM (active)

SMILES: O=C(NCc1ccco1)C1c2ccccc2Oc2ccccc21
- IC50 [11]: 15.7 µM (active)
- IC50 [12]: 71.3 µM (active)

SMILES: Cc1cccc2cc(C(c3nnnn3C(C)(C)C)N(Cc3ccco3)CC3CCCO3)c(=O)[nH]c12 (stereo not drawn)
- IC50 (Bcl-2-like protein 10): > 100 µM (inactive)
- IC50 (Estrogen receptor): 13.3 µM (active)

SMILES: Cc1ccc(-n2c(=S)[nH]c3c(oc4ccccc43)c2=O)cc1C
- IC50 [2]: 7.61 µM (active)
- IC50 [3]: 4.11 µM (active)

SMILES: Cc1cc(CC(C)C)n(-c2nc3ccccc3c(=O)n2OCC(N)=O)n1
- CC50 [13]: > 40 µM (active)
- IC50 (cells): 8.85 µM (active)
- CC50 [14]: > 20 µM (active)
- CC50 [15]: > 40 µM (active)

SMILES: CCOc1ccc(-n2cc(C(=O)N3CCN(C)CC3)c3cc(OC)c(OC)cc3c2=O)cc1
- IC50 (14-3-3 protein gamma): > 50 µM (not active)

SMILES: COc1ccc(NC(=O)CSC2=NCCN2)cc1
- IC50 [1]: > 100 µM (active)

SMILES: COc1cccc2cc(-c3cc(=O)oc4ccc(O)cc34)oc12
- IC50 [11]: 43.1 µM (active)
- IC50 [12]: > 100 µM (inactive)

SMILES: Cc1cc(C)cc(N2C(=O)C=CC2=O)c1
- IC50 (Beta-galactosidase): > 66.6 µM (inactive)
- AC50 [16]: 0.499 µM (active)

SMILES: Cc1ccc(C)c(-n2[nH]c3ccccc3c2=O)c1
- IC50 (Phosphomannomutase 2): > 100 µM (inactive)

SMILES: C(=N/Nc1nccs1)/c1cccnc1
- EC50 [4]: > 50 µM (active)

SMILES: Cn1c(=O)[nH]c(=O)c2c1nc(Br)n2C/C=N/Nc1ccccc1
- IC50 [17]: > 50 µM (not active)

Source: ChEMBL document CHEMBL1201862, “PubChem BioAssay data set” (2004)
